Consider one molecule from patent US20180320186A1, “METHOD FOR SITE-SPECIFIC INSERTION OF FOREIGN DNA INTO A GENOME IN AN ANIMAL CELL AND A CELL OBTAINED USING SAME” (INTER-UNIVERSITY RESEARCH INSTITUTE CORPORATION RESEARCH …, priority 2015, published 2018).

Common to all, as to format: cell-based, human
The subject of assay [1] is living cells in which a DHC1-mAID-Clover fusion protein is expressed. The experiment in a line: Relative number of cells after treatment of cells expressing DHC1-mAID-Clover. The note with it: 500 μM auxin with 2 μg/mL doxycycline; 24, 48 and 72 hours relative to zero hours. The method, then: FIG. 11 is a graph showing the relative number of cells at 24, 48, and 72 hours after treatment with respect to the number of cells at zero hours after treatment, using living cells in which a DHC1-mAID-Clover fusion protein is expressed, untreated and treated with 2 μg/mL of doxycycline alone, or 2 μg/mL of doxycycline and 500 μM of auxin.
The relative number of cells at 24, 48, and 72 hours after treatment was calculated with respect to the number of cells at zero hours after treatment, using living cells in which a DHC1-mAID-Clover fusion protein is expressed, untreated and treated with 2 μg/mL of doxycycline alone, or 2 μg/mL of doxycycline and 500 μM of auxin (FIG. 11).

The test system is the same in assay [2]. The assay can be described thus: Percentage of mitotic cells and fluorescence microscopy (tubulin antibody, SiR-Hoechst) of cells expressing DHC1-mAID-Clover. The note with it: 500 μM auxin with 1 μg/mL tetracycline. Here is the method:
FIG. 12 is a graph showing the percentage of mitotic cells at 18 and 42 hours after treatment, using living cells in which a DHC1-mAID-Clover fusion protein is expressed, untreated and treated with 1 μg/mL of tetracycline alone, or 1 μg/mL of tetracycline and 500 μM of auxin.
The percentage of mitotic cells at 18 and 42 hours after treatment was calculated, using living cells in which a DHC1-mAID-Clover fusion protein is expressed, untreated and treated with 1 μg/mL of tetracycline alone, or 1 μg/mL of tetracycline and 500 μM of auxin (FIG. 12).
In addition, fluorescence microscope observation was carried out after immunostaining with a tubulin antibody and nuclear staining with SiR-Hoechst at 18 hours after treatment for living cells in which a DHC1-mAID-Clover fusion protein is expressed, untreated and treated with 1 μg/mL of tetracycline and 500 μM of auxin (FIG. 13).

For assay [3], the system named is DHC1 protein having mAID-Clover added. The assay can be described thus: Western blotting with DHC1 antibody after doxycycline and auxin treatment. Particulars: 500 μM auxin with 2 μg/mL doxycycline for 2, 4, 6, 8, 10 and 24 hours. The method, then:
(§1) In this experiment, wild-type HCT116 cells and HCT 116 cells modified to constitutively express OsTIR1 necessary for an auxin-inducible degron (AID) method were used as materials. Proliferating cells were prepared in a 6-well plate. 0.8 μg of pX330 for cleaving the target portion of DHC1 gene and 0.6 μg of each of the constructed donor vectors having neomycin and hygromycin resistance markers were mixed and transfected into the cells using Fugene HD (available from Promega Corporation). For transfection, DNA and Fugene HD were mixed according to the instruction manual, allowed to stand for 15 minutes and then added dropwise to the medium.
A protein was extracted from clones in which insertions into both alleles were confirmed by genomic PCR, and subjected to Western blotting using a DHC1 antibody and an OsTIR antibody (right in FIG. 10). In addition, a protein was similarly extracted from the cells treated with 2 μg/mL of doxycycline and 500 μM of auxin (3-indole acetic acid) for 2, 4, 6, 8, 10, and 24 hours, and used for Western blotting.

In assay [4] the test system is RAD21-mAID-Clover fusion protein. The assay can be described thus: Deconvolution fluorescence microscopy of living cells expressing RAD21-mAID-Clover after auxin treatment. The note with it: 500 μM auxin, observed after 90 minutes, HCT116 with or without OsTIR1. The method, then:
as §1, with “RAD21” for “DHC1”
In the cells before treatment with auxin (3-indole acetic acid), it was observed that RAD21-mAID-Clover was localized in the cell nucleus, regardless of expression of OsTIR1.

Assay [5] shares this test system. The experiment in a line: Western blotting of RAD21-mAID-Clover after auxin treatment (AID method). Particulars: 500 μM auxin for 20 hours, HCT116 with or without OsTIR1. The method, then: as §1, with “RAD21” for “DHC1”
A protein was extracted from clones in which insertions into both alleles were confirmed by genomic PCR, and subjected to Western blotting using a RAD21 antibody and a mAID antibody (right in FIG. 6). […] The RAD21 to which mAID-Clover was not added was detected at 105 kDa. On the other hand, the RAD21-mAID-Clover fusion protein was detected at 145 kDa. As shown in the right side of FIG. 6, in the case where a RAD21 antibody was used, a 105 kDa band was detected in the original HCT116 cells (WT), whereas in the case where mAID-Clover was added to both alleles, a 145 kDa band was detected. In addition, in the case where a mAID antibody was used, only the RAD21 protein having mAID-Clover added thereto was detected.

Consider `O=C(O)Cc1c[nH]c2ccccc12` [auxin, 3-indole acetic acid], for which, in assay [1], the “Relative number of cells (cell proliferation)” value is given as “cell proliferation was suppressed after 48 hours from the treatment”. Moreover, the “Percentage of mitotic cells” value in assay [2] (18 and 42 hours after treatment) is reported as “accumulation of mitotic cells”. Besides, the “Chromosomal structure (fluorescence microscopy)” value in assay [2] (18 hours after treatment) is given as “a chromosomal structural abnormality occurred”. The “DHC1-mAID-Clover protein level (DHC1 antibody)” value in assay [3] was “disappeared with time”. Besides, the “Disappearance of RAD21-mAID-Clover from the nucleus (fluorescence microscope)” value in assay [4] was “RAD21-mAID-Clover disappeared only in cells expressing OsTIR1”. The “Degradation of RAD21-mAID-Clover (Western blotting)” value in assay [5] is listed as “disappearance of RAD21-mAID-Clover occurred in OsTIR1-expressing cells”.
